Key:
Format in all cases: binding
eIF4E-2a = target: T1, eIF4E-2a (Amphidinium carterae, UniProt A0A109QBD6); experiment: SPR, Biacore T-200, steady state
T1 construct: N-terminal GST tag (TEV site), E. coli, GST-fusion dimer, tag kept
T1 sequence (A0A109QBD6 1-255): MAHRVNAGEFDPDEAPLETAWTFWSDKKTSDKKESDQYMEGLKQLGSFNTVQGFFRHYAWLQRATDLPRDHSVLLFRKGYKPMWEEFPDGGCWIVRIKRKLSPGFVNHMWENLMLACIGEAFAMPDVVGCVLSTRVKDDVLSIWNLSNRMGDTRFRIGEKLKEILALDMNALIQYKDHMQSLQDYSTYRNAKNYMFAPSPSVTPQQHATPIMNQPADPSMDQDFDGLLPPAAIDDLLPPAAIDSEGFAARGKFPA
Source text: SPR, Biacore T-200, steady state on eIF4E-2a

mouse eIF4E-1 [1] = target: T2, mouse eIF4E-1 (Mus musculus, UniProt P63073); experiment: SPR, Biacore T-200, steady state
T2 construct: N-terminal GST tag, E. coli, GST-fusion dimer, tag kept

eIF4E-1a = target: T3, eIF4E-1a (Amphidinium carterae, UniProt A0A0X9W7I2); experiment: SPR, Biacore T-200, steady state
T3 construct: N-terminal GST tag (TEV site), pGEX-4T(MCS)-TEV, E. coli Rosetta(DE3)pLysS, DTT treated, GST-fusion dimer by gel filtration; tag kept
T3 sequence (A0A0X9W7I2 1-233): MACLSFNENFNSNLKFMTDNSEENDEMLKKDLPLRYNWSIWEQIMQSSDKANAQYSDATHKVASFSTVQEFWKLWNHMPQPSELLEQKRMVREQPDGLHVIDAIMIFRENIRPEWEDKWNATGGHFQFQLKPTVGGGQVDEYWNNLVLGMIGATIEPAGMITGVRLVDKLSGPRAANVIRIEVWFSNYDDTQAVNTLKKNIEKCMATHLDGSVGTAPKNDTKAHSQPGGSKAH

eIF4E-1d1 [2] = target: T4, eIF4E-1d1 (Amphidinium carterae, UniProt A0A0X9VJN7); experiment: SPR, Biacore T-200, steady state
T4 construct: gene eIF4E-1d; N-terminal GST tag (TEV site), E. coli, GST-fusion dimer, tag kept (SPR); S-tagged in vitro translated protein in bead assay
T4 sequence (A0A0X9VJN7 1-239): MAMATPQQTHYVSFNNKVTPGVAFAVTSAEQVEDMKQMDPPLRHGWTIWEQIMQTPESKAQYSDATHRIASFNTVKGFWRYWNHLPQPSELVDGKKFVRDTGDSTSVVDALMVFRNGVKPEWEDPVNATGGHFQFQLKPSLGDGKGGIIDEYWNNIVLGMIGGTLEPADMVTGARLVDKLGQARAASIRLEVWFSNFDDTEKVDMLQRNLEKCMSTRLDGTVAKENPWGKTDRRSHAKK

mouse eIF4E-1 [3] = target: T2, mouse eIF4E-1; experiment: SPR, Biacore T-200, kinetic fit
Source text: SPR, Biacore T-200, kinetic fit on mouse eIF4E-1

eIF4E-1d1 [4] = target: T4, eIF4E-1d1; experiment: SPR, Biacore T-200, kinetic fit
Source text: SPR, Biacore T-200, kinetic fit on eIF4E-1d1

eIF4E-1d1 [5] = target: T4, eIF4E-1d1; experiment: cap-Sepharose pull-down of […] in vitro translated protein; settings: ligand immobilised on Sepharose; S-tagged protein; 25 mM HEPES/KOH pH 7.2, 150 mM KCl, 200 μM GTP, 4 °C
eIF4E-1c = target: T5, eIF4E-1c (Amphidinium carterae, UniProt A0A0X9VF44); experiment: as above; settings: ligand immobilised on Sepharose; S-tagged protein; 25 mM HEPES/KOH pH 7.2, 150 mM KCl, 200 μM GTP, 4 °C
T5 construct: N-terminal S-tag, pCITE-4a, in vitro transcription/translation in rabbit reticulocyte lysate, 35S-Met labelled
T5 sequence (A0A0X9VF44 1-244): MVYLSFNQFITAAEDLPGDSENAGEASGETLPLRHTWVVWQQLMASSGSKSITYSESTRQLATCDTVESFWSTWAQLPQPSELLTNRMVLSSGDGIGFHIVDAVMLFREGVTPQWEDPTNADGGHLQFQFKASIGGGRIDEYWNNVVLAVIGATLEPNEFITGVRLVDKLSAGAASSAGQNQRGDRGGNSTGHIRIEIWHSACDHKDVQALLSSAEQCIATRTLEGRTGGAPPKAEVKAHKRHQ

T2 sequence (P63073 2-217): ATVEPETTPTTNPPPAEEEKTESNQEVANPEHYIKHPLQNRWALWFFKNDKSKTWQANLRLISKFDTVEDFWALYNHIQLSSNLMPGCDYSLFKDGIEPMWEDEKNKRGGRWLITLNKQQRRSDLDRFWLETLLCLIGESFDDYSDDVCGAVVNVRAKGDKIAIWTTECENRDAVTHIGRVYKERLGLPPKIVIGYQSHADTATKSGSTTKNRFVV

Compound	Kd (eIF4E-2a) [µM]	Kd (mouse eIF4E-1 [1]) [µM]	Kd (eIF4E-1a) [µM]	Kd (eIF4E-1d1 [2]) [µM]	Kd (mouse eIF4E-1 [3]) [µM]	Kd (eIF4E-1d1 [4]) [µM]	cap-Sepharose pull-down of 35S in vitro translated protein (eIF4E-1d1 [5])	cap-Sepharose pull-down of 35S in vitro translated protein (eIF4E-1c)
C[n+]1cn([C@@H]2O[C@H](COP(=O)(O)OP(=O)(O)OP(=O)(O)OC[C@H]3O[C@@H](n4cnc5c(=O)[nH]c(N)nc54)[C@H](O)[C@@H]3O)[C@@H](O)[C@H]2O)c2nc(N)[nH]c(=O)c21 [m^7GpppG]	469 ± 220	59.7 ± 49.3	17.5 ± 4.68	34.5 ± 18.6				
C[n+]1cn([C@@H]2O[C@H](COP(=O)(O)OP(=O)(O)OP(=O)(O)OC[C@H]3O[C@@H](n4ccc(N)nc4=O)[C@H](O)[C@@H]3O)[C@@H](O)[C@H]2O)c2nc(N)[nH]c(=O)c21 [m^7GpppC]			10.8 ± 3.1		69.8	82.4		
CN(C)c1nc2c(c(=O)[nH]1)[n+](C)cn2[C@@H]1O[C@H](COP(=O)(O)OP(=O)(O)OP(=O)(O)O)[C@@H](O)[C@H]1O [TMG]							eIF4E-1c and eIF4E-1d1 showed some affinity for the TMG cap analogue	eIF4E-1c and eIF4E-1d1 showed some affinity for the TMG cap analogue
Nc1nc2c(ncn2[C@@H]2O[C@H](COP(=O)(O)OP(=O)(O)OP(=O)(O)OC[C@H]3O[C@@H](n4cnc5c(=O)[nH]c(N)nc54)[C@H](O)[C@@H]3O)[C@@H](O)[C@H]2O)c(=O)[nH]1 [GpppG]	665 ± 19	316 ± 38	1730 ± 3700	1010 ± 110				

From paper doi:10.1101/2024.02.20.581179v1, “Regulated mRNA recruitment in dinoflagellates is reflected in hyper-variable mRNA spliced leaders and novel eIF4Es” (biorxiv, 2024)
